# Target: T1, hIK channels (Homo sapiens, UniProt O15554)
# T1 construct: The full length hSK-1, 2, 3 and IK clones were obtained; expressed in transfected cells
# Test: Whole cell patch clamp electrophysiology, hIK channels expressed in CHO-K1 cells (FIG. 1)
# Format: cell-based
# Procedure: FIG. 1 illustrates the activation of hIK channels expressed in CHO—K1 cells by a compound of formula (V): [drawing 3]
# The full length hSK-1, 2, 3 and IK clones were obtained either by PCR and 5′-RACE from a human cDNA library (Genbank accession numbers hSK1 U69883; hSK-2 unpublished) or from the Incyte or dbEST databases (Incyte Pharmaceuticals, Inc.; hSK3 AJ251016, hIK AF022797). An optimal Kozak sequence was added to the initiation site and the cDNA was cloned into Bluescript and subsequently the IRES vector pCIN5 for mammalian expression.
# All SK/IK stable cell lines were generated in CHO—K1 using the pCIN5 construct, under selection for resistance to 500 μg/ml geneticin. Five μg of the purified plasmid DNA was used to transfect 5×10^6 CHO—K1 cells (ATCC N° CRL 9618) by electroporation (standard protocol with BIORAD Gene Pulser II). […]
# Standard whole cell patch clamp electrophysiology methods are used to record membrane currents from single cells expressing either SK or IK channels. […] Membrane currents are amplified and recorded with an Axopatch 200B or HEKA EPC-9 patch clamp amplifier coupled to a Pentium microprocessor via an analog-digital interface. […] Pipettes are backfilled with an internal solution containing a 144 mM KCl, 10 mM EGTA, 10 mM HEPES, 1 mM MgCl2 and concentrations of CaCl2 calculated to give free Ca^2+ concentrations ranging from 30 nM to 1 μM. […]
Compound,"activation of hIK channels (whole cell currents, timecourse, concentration response curves) (hIK expressed in CHO-K1 cells, FIG. 1(a)-(c))","inhibition of hIK current by the IK blocker (charybdotoxin 100 nM, hIK in CHO-K1 cells activated by compound of formula (V), FIG. 1(d))"
NC(=O)/C=C1\CCc2c(F)cc(F)cc21 [compound of formula (V)],activation,–
charybdotoxin,–,inhibition
